Experimental data: the NIST ThermoML archive (doi:10.1021/je300799f)

Assay: xn = mol fraction of the nth substance listed
Conditions: 101 kPa, Liquid, Vibrating tube method

CCCC(=O)OCC [ethyl butanoate] + CCCCCCC
Conditions | mass density [kg/m3]
288.15 K, x1 = 0.0502 | 696.39
288.15 K, x1 = 0.0918 | 703.35
288.15 K, x1 = 0.1473 | 712.8
288.15 K, x1 = 0.2022 | 722.42
288.15 K, x1 = 0.2465 | 730.35
288.15 K, x1 = 0.288 | 737.84
288.15 K, x1 = 0.3987 | 758.41
288.15 K, x1 = 0.4488 | 767.94
288.15 K, x1 = 0.5008 | 778.03
288.15 K, x1 = 0.5456 | 786.84
288.15 K, x1 = 0.6023 | 798.22
288.15 K, x1 = 0.6584 | 809.63
288.15 K, x1 = 0.6999 | 818.26
288.15 K, x1 = 0.7486 | 828.54
288.15 K, x1 = 0.8042 | 840.42
288.15 K, x1 = 0.8481 | 850.01
288.15 K, x1 = 0.901 | 861.58
288.15 K, x1 = 0.9347 | 869.11
288.15 K, x1 = 0.9527 | 873.2
288.15 K, x1 = 1 | 884.01
298.15 K, x1 = 0.0522 | 688.18
298.15 K, x1 = 0.0904 | 694.54
298.15 K, x1 = 0.1404 | 703.05
298.15 K, x1 = 0.1901 | 711.58
298.15 K, x1 = 0.2539 | 722.68
298.15 K, x1 = 0.2962 | 730.22
298.15 K, x1 = 0.3543 | 740.87
298.15 K, x1 = 0.4 | 749.31
298.15 K, x1 = 0.443 | 757.44
298.15 K, x1 = 0.5517 | 778.51
298.15 K, x1 = 0.6018 | 788.45
298.15 K, x1 = 0.648 | 797.84
298.15 K, x1 = 0.6976 | 808.02
298.15 K, x1 = 0.7463 | 818.17
298.15 K, x1 = 0.7884 | 827.06
298.15 K, x1 = 0.8473 | 839.64
298.15 K, x1 = 0.9054 | 852.26
298.15 K, x1 = 0.9524 | 862.74
298.15 K, x1 = 1 | 873.5
308.15 K, x1 = 0.0461 | 678.42
308.15 K, x1 = 0.0952 | 686.44
308.15 K, x1 = 0.1445 | 694.69
308.15 K, x1 = 0.2034 | 704.7
308.15 K, x1 = 0.2497 | 712.78
308.15 K, x1 = 0.3081 | 723.17
308.15 K, x1 = 0.3441 | 729.57
308.15 K, x1 = 0.406 | 741.01
308.15 K, x1 = 0.4563 | 750.35
308.15 K, x1 = 0.5053 | 759.76
308.15 K, x1 = 0.5505 | 768.46
308.15 K, x1 = 0.6038 | 778.99
308.15 K, x1 = 0.6498 | 788.17
308.15 K, x1 = 0.7026 | 798.87
308.15 K, x1 = 0.7544 | 809.6
308.15 K, x1 = 0.788 | 816.69
308.15 K, x1 = 0.8424 | 828.13
308.15 K, x1 = 0.9009 | 840.82
308.15 K, x1 = 0.9512 | 851.86
308.15 K, x1 = 1 | 862.85
318.15 K, x1 = 0.0532 | 670.78
318.15 K, x1 = 0.095 | 677.56
318.15 K, x1 = 0.1397 | 684.91
318.15 K, x1 = 0.2087 | 696.59
318.15 K, x1 = 0.2565 | 704.87
318.15 K, x1 = 0.3048 | 713.3
318.15 K, x1 = 0.3608 | 723.3
318.15 K, x1 = 0.4046 | 731.26
318.15 K, x1 = 0.4532 | 740.3
318.15 K, x1 = 0.5065 | 750.34
318.15 K, x1 = 0.5517 | 759.04
318.15 K, x1 = 0.6007 | 768.46
318.15 K, x1 = 0.6492 | 778.12
318.15 K, x1 = 0.6934 | 787.02
318.15 K, x1 = 0.739 | 796.28
318.15 K, x1 = 0.7947 | 807.72
318.15 K, x1 = 0.8554 | 820.65
318.15 K, x1 = 0.8861 | 827.23
318.15 K, x1 = 0.9515 | 841.48
318.15 K, x1 = 1 | 852.26
328.15 K, x1 = 0.0535 | 662.06
328.15 K, x1 = 0.0975 | 669.12
328.15 K, x1 = 0.1485 | 677.41
328.15 K, x1 = 0.1785 | 682.4
328.15 K, x1 = 0.2367 | 692.21
328.15 K, x1 = 0.3034 | 703.69
328.15 K, x1 = 0.359 | 713.56
328.15 K, x1 = 0.4538 | 730.76
328.15 K, x1 = 0.5087 | 741
328.15 K, x1 = 0.5511 | 749.04
328.15 K, x1 = 0.6093 | 760.27
328.15 K, x1 = 0.6471 | 767.65
328.15 K, x1 = 0.6967 | 777.52
328.15 K, x1 = 0.739 | 786.07
328.15 K, x1 = 0.7999 | 798.54
328.15 K, x1 = 0.8397 | 806.83
328.15 K, x1 = 0.9086 | 821.54
328.15 K, x1 = 0.9533 | 831.27
328.15 K, x1 = 1 | 841.55

CCCC(=O)OCC [ethyl butanoate] + CCCCCCCCC
Conditions | mass density [kg/m3]
288.15 K, x1 = 0.0379 | 725.8
288.15 K, x1 = 0.1046 | 733.19
288.15 K, x1 = 0.1502 | 738.59
288.15 K, x1 = 0.2013 | 744.84
288.15 K, x1 = 0.2499 | 751.04
288.15 K, x1 = 0.3047 | 758.28
288.15 K, x1 = 0.3427 | 763.5
288.15 K, x1 = 0.3961 | 771.2
288.15 K, x1 = 0.4355 | 776.9
288.15 K, x1 = 0.4957 | 786.1
288.15 K, x1 = 0.5455 | 794.1
288.15 K, x1 = 0.5857 | 800.8
288.15 K, x1 = 0.6498 | 811.8
288.15 K, x1 = 0.7067 | 822.09
288.15 K, x1 = 0.752 | 830.65
288.15 K, x1 = 0.8019 | 840.45
288.15 K, x1 = 0.8502 | 850.42
288.15 K, x1 = 0.904 | 861.91
288.15 K, x1 = 0.9569 | 873.91
288.15 K, x1 = 1 | 884.01
298.15 K, x1 = 0.0486 | 719.05
298.15 K, x1 = 0.0906 | 723.69
298.15 K, x1 = 0.1007 | 724.84
298.15 K, x1 = 0.1495 | 730.49
298.15 K, x1 = 0.2442 | 742.05
298.15 K, x1 = 0.2985 | 749.08
298.15 K, x1 = 0.3131 | 750.97
298.15 K, x1 = 0.3518 | 756.23
298.15 K, x1 = 0.4357 | 768.18
298.15 K, x1 = 0.5028 | 778.32
298.15 K, x1 = 0.5511 | 785.92
298.15 K, x1 = 0.5974 | 793.57
298.15 K, x1 = 0.703 | 811.93
298.15 K, x1 = 0.746 | 819.92
298.15 K, x1 = 0.7879 | 827.92
298.15 K, x1 = 0.8532 | 841.01
298.15 K, x1 = 0.9053 | 852.07
298.15 K, x1 = 1 | 873.5
308.15 K, x1 = 0.0505 | 711.25
308.15 K, x1 = 0.0818 | 714.63
308.15 K, x1 = 0.1528 | 722.65
308.15 K, x1 = 0.1872 | 726.67
308.15 K, x1 = 0.2112 | 729.53
308.15 K, x1 = 0.2818 | 738.36
308.15 K, x1 = 0.3302 | 744.66
308.15 K, x1 = 0.3685 | 749.81
308.15 K, x1 = 0.426 | 757.85
308.15 K, x1 = 0.4773 | 765.37
308.15 K, x1 = 0.5187 | 771.59
308.15 K, x1 = 0.5712 | 779.88
308.15 K, x1 = 0.642 | 791.55
308.15 K, x1 = 0.6753 | 797.37
308.15 K, x1 = 0.726 | 806.38
308.15 K, x1 = 0.7822 | 816.86
308.15 K, x1 = 0.833 | 826.88
308.15 K, x1 = 0.878 | 836.1
308.15 K, x1 = 0.9384 | 848.96
308.15 K, x1 = 1 | 862.85
318.15 K, x1 = 0.0435 | 702.45
318.15 K, x1 = 0.1009 | 708.56
318.15 K, x1 = 0.1439 | 713.46
318.15 K, x1 = 0.2001 | 719.85
318.15 K, x1 = 0.2489 | 725.77
318.15 K, x1 = 0.2861 | 730.43
318.15 K, x1 = 0.355 | 739.26
318.15 K, x1 = 0.402 | 745.62
318.15 K, x1 = 0.4556 | 753.18
318.15 K, x1 = 0.4988 | 759.53
318.15 K, x1 = 0.547 | 766.88
318.15 K, x1 = 0.6011 | 775.45
318.15 K, x1 = 0.656 | 784.53
318.15 K, x1 = 0.6951 | 791.27
318.15 K, x1 = 0.7543 | 801.83
318.15 K, x1 = 0.7999 | 810.52
318.15 K, x1 = 0.8485 | 819.97
318.15 K, x1 = 0.8947 | 829.27
318.15 K, x1 = 0.9545 | 842.03
318.15 K, x1 = 1 | 852.26
328.15 K, x1 = 0.0481 | 695.05
328.15 K, x1 = 0.1134 | 701.93
328.15 K, x1 = 0.1627 | 707.35
328.15 K, x1 = 0.2102 | 712.81
328.15 K, x1 = 0.2589 | 718.53
328.15 K, x1 = 0.3111 | 725
328.15 K, x1 = 0.3588 | 731.17
328.15 K, x1 = 0.402 | 736.91
328.15 K, x1 = 0.4562 | 744.36
328.15 K, x1 = 0.5565 | 759.06
328.15 K, x1 = 0.5996 | 765.77
328.15 K, x1 = 0.6524 | 774.29
328.15 K, x1 = 0.7062 | 783.42
328.15 K, x1 = 0.7544 | 791.91
328.15 K, x1 = 0.806 | 801.44
328.15 K, x1 = 0.8433 | 808.67
328.15 K, x1 = 0.8917 | 818.28
328.15 K, x1 = 0.9532 | 831.23
328.15 K, x1 = 1 | 841.55
